Reference: patent publication US10745394B2, “8-azabicyclo[3.2.1]octane compounds as mu opioid receptor antagonists” (priority 2006, dated 2020)
Like-named read-outs stand apart in the source and are kept apart here.

Key:
human mu opioid receptor [1] = target: T1, human mu opioid receptor (Homo sapiens, UniProt P35372); assay: Human mu GTP-Eu nucleotide exchange assay (agonist mediated activation) in CHO-K1 membranes; type: biochemical; details: bound GTP-Eu relative to DAMGO (IA=100); read-out: intrinsic activity (IA)
T1 construct: expressed in transfected cells; host or cells: CHO-K1
T1 sequence (P35372 whole entry): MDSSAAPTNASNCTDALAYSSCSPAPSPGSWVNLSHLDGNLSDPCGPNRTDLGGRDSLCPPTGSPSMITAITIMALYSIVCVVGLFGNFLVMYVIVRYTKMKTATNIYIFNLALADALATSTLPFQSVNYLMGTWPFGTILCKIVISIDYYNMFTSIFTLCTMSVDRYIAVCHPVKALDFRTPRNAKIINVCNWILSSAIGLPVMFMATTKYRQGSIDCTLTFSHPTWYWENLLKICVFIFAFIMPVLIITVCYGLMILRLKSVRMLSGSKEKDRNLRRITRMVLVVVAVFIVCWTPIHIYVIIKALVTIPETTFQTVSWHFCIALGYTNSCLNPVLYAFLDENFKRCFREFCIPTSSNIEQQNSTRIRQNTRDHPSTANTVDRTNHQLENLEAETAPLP
Experimental: a. Mu Opioid Receptor Membrane Preparation:
Protein concentration was determined using a Bio-Rad Bradford Protein Assay kit. Membranes were stored in frozen aliquots at −80° C., until required. Lyophilized GTP-Eu and GDP were diluted to 10 μM and 2 mM, respectively, in double distilled H2O then mixed and permitted to sit at room temperature for 30 minutes prior to transfer to individual aliquots samples for storage at −20° C.
b. Human Mu GTP-Eu Nucleotide Exchange Assay
GTP-Eu nucleotide exchange assays were performed using the DELPHIA GTP-binding kit (Perkin/Elmer) in AcroWell 96 well filter plates according to the manufacturer's specifications. […] Test compounds were received as 10 mM stock solutions in DMSO, diluted to 400 μM into Assay Buffer containing 0.1% BSA, and serial (1:5) dilutions then made to generate ten concentrations of compound ranging from 40 pM^− 80 μM-GDP and GTP-Eu were diluted to 4 μM and 40 nM, respectively, in Assay Buffer. The assay was performed in a total volume of 100 μL containing 5 μg of membrane protein, test compound ranging from 10 pM-20 μM), 1 μM GDP, and 10 nM GTP-Eu diluted in 10 mM MgCl2, 50 mM NaCl, and 0.0125% BSA, (final assay concentrations). A DAMGO (Tyr-D-Ala-Gly-(methyl)Phe-Gly-ol) concentration-response curve (ranging from 12.8 pM-1 μM) was included on every plate.
Assay plates were prepared immediately prior to assay following the addition of 25 μL of Assay Buffer, 25 μL of test compound, and 25 μL GDP and GTP-Eu. The assay was initiated by the addition of 25 μL membrane protein and allowed to incubate for 30 minutes. The assay plates were then filtered with a Waters vacuum manifold connected to the house vacuum regulated to 10-2 in. Hg and washed with room temperature GTP Wash Solution ([…]). The bottoms of the plates were blotted to remove excess liquid. The plates were then immediately read to determine the amount of bound GTP-Eu by measuring Time Resolved Fluorescence (TRF) on a Packard Fusion Plate ReaderVehicle: DMSO not to exceed 1% final assay concentration.
The amount of bound GTP-Eu is proportional to the degree of activation of the mu opioid receptors by the test compound.

human mu opioid receptor [2] = target: T1, human mu opioid receptor; assay: Radioligand binding assay, human mu opioid receptor; details: displacement of [3H]-Diprenorphine
[3] = system: morphine-induced analgesia / morphine-induced delayed gastrointestinal transit
[4] = following subcutaneous administration

SMILES	Emax (human mu opioid receptor [1]) [%]	pKi (human mu opioid receptor [2])	peripheral selectivity (hotplate ID50 / intestinal transit ID50) ([3]; following oral administration)	peripheral selectivity (hotplate ID50 / intestinal transit ID50) [3, 4]
O=C(CO)N(CCN1[C@@H]2CC[C@H]1C[C@@H](c1cccc(O)c1)C2)Cc1ccccc1 [Example 1, N-benzyl-2-hydroxy-N-{2-[3-endo-(3-hydroxyphenyl)-8-azabicyclo[3.2.1]oct-8-yl]ethyl}acetamide]	6	10.1	–	–
NC(=O)c1cccc([C@H]2C[C@H]3CC[C@@H](C2)N3CCN(Cc2ccccc2)C(=O)CO)c1 [Example 46B, 3-endo-(8-{2-[benzyl-(2-hydroxyacetyl)-amino]ethyl}-8-azabicyclo[3.2.1]oct-3-yl)benzamide]	-3	10.0	–	–
NC(=O)c1cccc([C@H]2C[C@H]3CC[C@@H](C2)N3CCN(CC2CCCCC2)C(=O)CO)c1 [Example 48B, 3-endo-(8-{2-[cyclohexylmethyl-(2-hydroxyacetyl)-amino]-ethyl}-8-azabicyclo[3.2.1]oct-3-yl)benzamide]	–	–	42	30
NC(=O)c1cccc([C@H]2C[C@H]3CC[C@@H](C2)N3CCN(CC2CCCCC2)C(=O)[C@@H](O)CO)c1 [Example 58, 3-endo-(8-{2-[cyclohexylmethyl-((S)-2,3-dihydroxy-propionyl)amino]ethyl}-8-aza-bicyclo[3.2.1]oct-3-yl)benzamide]	-3	9.9	35	300
NC(=O)c1cccc([C@H]2C[C@H]3CC[C@@H](C2)N3CCN(CCc2ccccc2)C(=O)CO)c1 [Example 59, 3-endo-(8-{2-[(2-hydroxyacetyl)phenethylamino]-ethyl}-8-azabicyclo[3.2.1]oct-3-yl)benzamide]	-2	–	–	–
NC(=O)c1cccc([C@H]2C[C@H]3CC[C@@H](C2)N3CCN(CC2CCC(F)(F)CC2)C(=O)CO)c1 [Example 63, 3-endo-(8-{2-[(4,4-difluorocyclohexylmethyl)-(2-hydroxyacetyl)amino]ethyl}-8-azabicyclo[3.2.1]oct-3-yl)benzamide]	–	–	22	22
CS(=O)(=O)CC(=O)N(CCc1ccccc1)CCN1[C@@H]2CC[C@H]1C[C@@H](c1cccc(C(N)=O)c1)C2 [Example 136, 3-endo-(8-{2-[(2-methanesulfonylacetyl)phenethylamino]ethyl}-8-azabicyclo[3.2.1]oct-3-yl)-benzamide]	14	9.8	–	–
